We go through 14 compounds from ChEMBL document CHEMBL1157966, “Synthesis of salvinorin A analogues as opioid receptor probes” (J Nat Prod, 2006).

Broadly, the Ki is a measure of affinity in units of concentration, obtained from inhibition or displacement.

In assay [1] the target is Mu-type opioid receptor (Homo sapiens, UniProt P35372). As to the kind of experiment: Displacement of [125]OXY from mu opioid receptor.
The target in assay [2] is Delta-type opioid receptor (Homo sapiens, UniProt P41143). As to the kind of experiment: Displacement of [125]OXY from delta opioid receptor.
In assay [3] the target is Kappa-type opioid receptor (Homo sapiens, UniProt P41145). Description: Displacement of [125]OXY from kappa opioid receptor.
A short description of assay [4]: Selectivity ratio of Ki for mu opioid receptor to kappa opioid receptor.
Assay [5] in a line: Selectivity ratio of Ki for delta opioid receptor to kappa opioid receptor.

Delta-type opioid receptor, sequence (P41143 whole entry): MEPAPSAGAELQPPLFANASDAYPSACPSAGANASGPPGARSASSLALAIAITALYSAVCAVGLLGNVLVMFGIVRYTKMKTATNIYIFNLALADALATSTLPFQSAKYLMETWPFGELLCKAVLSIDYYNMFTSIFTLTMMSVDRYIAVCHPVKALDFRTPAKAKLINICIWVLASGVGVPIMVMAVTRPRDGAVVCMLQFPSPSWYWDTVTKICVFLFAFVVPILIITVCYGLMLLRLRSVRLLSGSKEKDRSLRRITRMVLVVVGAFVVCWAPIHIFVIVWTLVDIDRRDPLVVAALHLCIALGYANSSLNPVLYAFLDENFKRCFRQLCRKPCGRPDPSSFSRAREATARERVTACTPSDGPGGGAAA
Kappa-type opioid receptor, sequence (P41145 whole entry): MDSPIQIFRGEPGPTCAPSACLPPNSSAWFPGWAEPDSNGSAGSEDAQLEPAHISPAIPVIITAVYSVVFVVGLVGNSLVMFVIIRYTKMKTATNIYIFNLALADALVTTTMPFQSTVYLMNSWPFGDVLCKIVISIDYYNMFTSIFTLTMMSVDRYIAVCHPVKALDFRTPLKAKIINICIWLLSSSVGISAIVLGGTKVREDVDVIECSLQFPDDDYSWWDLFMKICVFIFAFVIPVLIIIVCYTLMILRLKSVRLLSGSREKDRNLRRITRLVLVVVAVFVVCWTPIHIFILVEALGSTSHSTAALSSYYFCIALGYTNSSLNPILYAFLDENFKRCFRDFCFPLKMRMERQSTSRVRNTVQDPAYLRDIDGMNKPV
Mu-type opioid receptor, sequence (P35372 whole entry): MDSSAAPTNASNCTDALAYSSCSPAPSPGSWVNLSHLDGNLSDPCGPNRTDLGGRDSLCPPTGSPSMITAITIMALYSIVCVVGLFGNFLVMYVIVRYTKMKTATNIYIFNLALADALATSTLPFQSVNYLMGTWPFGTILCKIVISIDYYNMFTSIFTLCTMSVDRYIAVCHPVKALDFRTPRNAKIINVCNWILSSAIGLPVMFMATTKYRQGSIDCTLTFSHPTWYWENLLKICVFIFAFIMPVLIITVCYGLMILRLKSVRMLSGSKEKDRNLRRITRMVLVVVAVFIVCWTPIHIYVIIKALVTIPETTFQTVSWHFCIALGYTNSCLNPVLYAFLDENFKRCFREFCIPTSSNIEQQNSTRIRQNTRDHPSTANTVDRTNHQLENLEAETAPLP

`COC(=O)[C@@H]1C[C@H](OC(=O)c2cccs2)C(=O)[C@H]2[C@@]1(C)CC[C@H]1C(=O)O[C@H](c3ccoc3)C[C@]21C`: the Ki stood at 0.01 µM in assay [1], 1.38 µM in assay [2] and 0.26 µM in assay [3]. For the same compound, the figures for the Ratio Ki in assay [4] and in assay [5] were 0.04 and 5, respectively.

In the case of `COC(=O)[C@@H]1C[C@H](OC(=O)CCc2ccccc2)C(=O)[C@H]2[C@@]1(C)CC[C@H]1C(=O)O[C@H](c3ccoc3)C[C@]21C`, the results for the Ki in assay [1], in assay [2] and in assay [3] were 0.28 µM, 9.33 µM and 0.18 µM, respectively. For the same compound, the Ratio Ki in assay [4] turned out to be 2; in assay [5], 52.

For the compound `CCC(=O)O[C@H]1C[C@@H](C(=O)OC)[C@]2(C)CC[C@H]3C(=O)O[C@H](c4ccoc4)C[C@]3(C)[C@H]2C1=O`, the Ratio Ki was over 560 in assay [4] and 2730 in assay [5].

As to `COC(=O)[C@@H]1C[C@H](OC(=O)c2ccccc2)C(=O)[C@H]2[C@@]1(C)CC[C@H]1C(=O)O[C@H](c3ccoc3)C[C@]21C`, the values for the Ratio Ki in assay [4] and in assay [5] were 0.13 and 12, respectively.

In the case of `COC(=O)[C@@H]1C[C@H](OC(=O)c2ccc(Br)cc2)C(=O)[C@H]2[C@@]1(C)CCC1C(=O)O[C@H](c3ccoc3)C[C@@]12C` (single isomer, unassigned), the Ki in assay [1] is 0.01 µM; in assay [2], 1.41 µM; in assay [3], 0.74 µM. The figures for the Ratio Ki in assay [4] and in assay [5] were 0.01 and 2, respectively.

Take `COC(=O)[C@@H]1C[C@H](OC(=O)c2cccc(Br)c2)C(=O)[C@H]2[C@@]1(C)CCC1C(=O)O[C@H](c3ccoc3)C[C@@]12C` (single isomer, unassigned): the results for the Ki in assay [1], in assay [2] and in assay [3] were 0.11 µM, over 10 µM and 0.07 µM, respectively. Besides, the Ratio Ki was 1.6 in assay [4] and over 100 in assay [5].

As to `CCCC(=O)O[C@H]1C[C@@H](C(=O)OC)[C@]2(C)CCC3C(=O)O[C@H](c4ccoc4)C[C@]3(C)[C@H]2C1=O` (single isomer, unassigned), the Ki in assay [1] amounted to 0.52 µM; in assay [2], 4.03 µM; in assay [3] it was 0.004 µM. The Ratio Ki in assay [4] was determined as 130; in assay [5] it was 1010.

As for `COC(=O)[C@@H]1C[C@H](OC(=O)c2ccccc2Br)C(=O)[C@H]2[C@@]1(C)CCC1C(=O)O[C@H](c3ccoc3)C[C@@]12C` (single isomer, unassigned), the Ki in assay [1] was 0.11 µM; in assay [2] it was over 10 µM; in assay [3] it was 0.09 µM. Also, the values for the Ratio Ki in assay [4] and in assay [5] were 1.2 and over 100, respectively.

Take `CCCCCC(=O)O[C@H]1C[C@@H](C(=O)OC)[C@]2(C)CCC3C(=O)O[C@H](c4ccoc4)C[C@]3(C)[C@H]2C1=O` (single isomer, unassigned): the Ki came to 0.52 µM in assay [1], 4.24 µM in assay [2] and 0.07 µM in assay [3]. Further, the Ratio Ki in assay [4] was 7; in assay [5], 61.

For the compound `CCCCC(=O)O[C@H]1C[C@@H](C(=O)OC)[C@]2(C)CCC3C(=O)O[C@H](c4ccoc4)C[C@]3(C)[C@H]2C1=O` (single isomer, unassigned), the Ki in assay [1] was 0.31 µM; in assay [2], 3.97 µM; in assay [3], 0.015 µM. Moreover, the Ratio Ki in assay [4] was 21; in assay [5], 265.

Take `COC(=O)[C@@H]1C[C@H](OC(=O)Cc2ccccc2)C(=O)[C@H]2[C@@]1(C)CCC1C(=O)O[C@H](c3ccoc3)C[C@@]12C` (single isomer, unassigned): the Ki in assay [1] was 1.09 µM; in assay [2], over 10 µM; in assay [3], 0.29 µM. The Ratio Ki in assay [4] is 4; in assay [5], over 30.

Turning to `COC(=O)[C@@H]1C[C@H](OS(=O)(=O)c2ccc(C)cc2)C(=O)[C@H]2[C@@]1(C)CCC1C(=O)O[C@H](c3ccoc3)C[C@@]12C` (single isomer, unassigned), the Ki was 0.22 µM in assay [1], 3.72 µM in assay [2] and 0.05 µM in assay [3]. Moreover, the Ratio Ki came out at 4 in assay [4] and 74 in assay [5].

On to `COC(=O)[C@@H]1C[C@H](OC(=O)CNC(=O)OC(C)(C)C)C(=O)[C@H]2[C@@]1(C)CCC1C(=O)O[C@H](c3ccoc3)C[C@@]12C` (single isomer, unassigned), for which the Ki in assay [1] was 5.66 µM; in assay [2] it was over 10 µM; in assay [3], 0.09 µM. Further, the values for the Ratio Ki in assay [4] and in assay [5] were 63 and over 100, respectively.

In the case of `COC(=O)[C@@H]1C[C@H](OS(=O)(=O)c2ccccc2)C(=O)[C@H]2[C@@]1(C)CCC1C(=O)O[C@H](c3ccoc3)C[C@@]12C` (single isomer, unassigned), the Ki in assay [1] was over 10 µM; in assay [2], over 10 µM; in assay [3], 0.06 µM. The Ratio Ki in assay [4] and in assay [5] was over 150 in each case.
